From PubChem BioAssay (NCI)
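In this assay, cells in 96-well plates receive the compound at five concentrations for 48 hours. Endpoints are linearly interpolated between the surrounding concentrations. TGI: total growth inhibition.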

What was measured:
Experiment in all cases: NCI tumour cell line growth inhibition, 48 h
UO-31 renal = test system: UO-31 renal
786-0 renal = test system: 786-0 renal
RXF 393 renal = test system: RXF 393 renal
NCI-H23 lung = test system: NCI-H23 lung
MCF7 breast = test system: MCF7 breast
HCT-15 colon = test system: HCT-15 colon
K-562 leukemia = test system: K-562 leukemia
SW-620 colon = test system: SW-620 colon
OVCAR-4 ovarian = test system: OVCAR-4 ovarian
T-47D breast = test system: T-47D breast

Compound | TGI (UO-31 renal) | TGI (786-0 renal) | TGI (RXF 393 renal) | TGI (NCI-H23 lung) | TGI (MCF7 breast) | TGI (HCT-15 colon) | TGI (K-562 leukemia) | TGI (SW-620 colon) | TGI (OVCAR-4 ovarian) | TGI (T-47D breast)
Cc1nc2ccccc2cc1C[N+]12CN3CN(CN(C3)C1)C2 | 57.4 µM | 37.8 µM | 40.4 µM | 33.9 µM | 27.7 µM | 47 µM | > 100 µM | > 100 µM | 64.9 µM | > 100 µM
CCOC(=O)C12C(=O)CCN1CCc1ccccc1C2C (centres undefined) | > 100 µM | > 100 µM | > 100 µM | > 100 µM | > 100 µM | > 100 µM | > 100 µM | > 100 µM | > 100 µM | > 100 µM
O=Cc1cc(O)c(O)c(/C=N/n2c3ccccc3c3ccccc32)c1 | 26.1 µM | 20.7 µM | 23.5 µM | 34.7 µM | 4.62 µM | 19.4 µM | 26.7 µM | 44.7 µM | 13.5 µM | 40.4 µM
S=C1CSc2c(cnc3ccccc23)N1 | > 100 µM | > 100 µM | > 100 µM | > 100 µM | > 100 µM | > 100 µM | > 100 µM | – | > 100 µM | > 100 µM
CC(C)(C)OC(=O)N1C/C=C\C(=O)C2(OCCO2)c2ccccc21 | 43.1 µM | 56.9 µM | 37.8 µM | > 100 µM | 96.2 µM | > 100 µM | 57.1 µM | 58.7 µM | > 100 µM | 49.5 µM
CCOC(=O)C1=CN(C(=O)c2ccccc2)CCC1Cc1ccccc1 (centres undefined) | 77.9 µM | > 100 µM | 61.8 µM | > 100 µM | 64 µM | > 100 µM | 77.3 µM | > 100 µM | > 100 µM | 72.8 µM
O=C(CCC(=O)OCC1OC(O)(CC2OC(CO)C(O)C(O)C2O)C(O)C1O)OCc1ccccc1 (centres undefined) | > 100 µM | > 100 µM | > 100 µM | > 100 µM | > 100 µM | > 100 µM | > 100 µM | > 100 µM | > 100 µM | > 100 µM
Cn1c(=O)c2[nH]c(-n3nc(-c4ccccc4)cc3N)nc2n(C)c1=O | > 100 µM | > 100 µM | > 100 µM | – | > 100 µM | > 100 µM | > 100 µM | – | 93.5 µM | 65.9 µM
c1csc(-c2nnc(C34CC5CC(CC(C5)C3)C4)o2)c1 | 15.6 µM | 60.2 µM | 54.7 µM | > 100 µM | > 100 µM | > 100 µM | > 100 µM | > 100 µM | > 100 µM | > 100 µM
CN1CCN(c2c(O)c3c(c(O)c2Cl)C(=O)C=CC3=O)CC1 | 1.22 µM | 0.718 µM | 0.602 µM | 1.54 µM | 0.576 µM | 0.491 µM | 0.659 µM | 0.369 µM | 1.37 µM | 4.25 µM
c1ccc(-c2nc3ccccc3n3nnnc23)cc1 | 1.57 µM | > 100 µM | > 100 µM | > 100 µM | > 100 µM | > 100 µM | > 100 µM | > 100 µM | > 100 µM | 97.3 µM
OCCNc1nc2c(N3CCCC3)nc(N3CCNCC3)nc2nc1NCc1ccccc1 | 28.7 µM | 28 µM | 24.7 µM | 34.2 µM | 28.3 µM | 32.2 µM | 30.1 µM | 42.4 µM | 32.2 µM | 30.8 µM
CN(C)/C=N/S(=O)(=O)c1nn2c(C=O)c(-c3cc4ccccc4oc3=O)nc2s1 | 4.84 µM | 5.24 µM | 9.97 µM | 42.4 µM | > 36.6 µM | 27.6 µM | > 24.4 µM | > 29.4 µM | 28.3 µM | 18.6 µM
COc1cc(C2C3=C(N=C4SC(C(C)=O)=C(C)N42)c2ccccc2CC3)cc(OC)c1OC (centres undefined) | > 100 µM | > 100 µM | > 100 µM | > 100 µM | > 100 µM | – | 85.2 µM | > 100 µM | > 100 µM | 50.9 µM
Cc1ccnc2sc3ccccc3c(=O)c12 | 81.8 µM | > 100 µM | > 100 µM | > 100 µM | > 100 µM | > 100 µM | > 100 µM | > 100 µM | > 100 µM | > 100 µM
CSc1nc(=O)c(C#N)c(-c2ccccc2)n1C1OC(COC(C)=O)C(OC(C)=O)C(OC(C)=O)C1OC(C)=O (centres undefined) | > 100 µM | > 100 µM | > 100 µM | > 100 µM | > 100 µM | > 100 µM | > 100 µM | > 100 µM | > 100 µM | > 100 µM
O=C1C=C(NCCc2cc(Br)c(O)c(Br)c2)C(=O)c2[nH]cnc21 | > 100 µM | > 100 µM | 98 µM | 50.8 µM | 48.9 µM | > 100 µM | > 100 µM | > 100 µM | 94.9 µM | 88.8 µM
CC(C)C(/C=C/c1ccccc1)=N\NC(=S)NN | > 100 µM | > 100 µM | > 100 µM | > 100 µM | > 76.6 µM | > 100 µM | > 100 µM | > 100 µM | > 100 µM | > 100 µM
N#CI1OC(C(F)(F)F)(C(F)(F)F)c2ccccc21 | 28.6 µM | 27.2 µM | 32.4 µM | 36 µM | 42.3 µM | 32.6 µM | > 100 µM | – | 30.6 µM | 49.3 µM
O=C(c1ccccc1)n1[nH]c(=O)n(-c2ccc(Cl)cc2)c1=O | > 100 µM | > 100 µM | > 100 µM | > 100 µM | > 100 µM | > 100 µM | > 100 µM | > 100 µM | > 100 µM | > 100 µM
COC1=CCC2=C(CCN(C(=O)C3CCC3)C2Cc2ccc(OC)c(O)c2)C1 (centres undefined) | – | 47.4 µM | 21.2 µM | 28.7 µM | 50.1 µM | 25.1 µM | > 100 µM | > 100 µM | > 100 µM | 62.4 µM
O=[N+]([O-])c1ccc(Cl)cc1N/N=C/c1cccs1 | > 100 µM | > 100 µM | > 100 µM | > 100 µM | > 100 µM | > 100 µM | > 100 µM | > 100 µM | > 100 µM | > 100 µM
